In PubChem BioAssay (NCI) one finds GI50 and TGI data, which are given here for 14 molecules.

Among the test systems are IGROV1 ovarian; NCI-H226 lung; U251 CNS; HOP-92 NSCLC; LOX IMVI melanoma; T-47D breast; UACC-257 melanoma; MALME-3M melanoma; MDA-MB-231 breast; K-562 leukemia.
Common to all, as to test: inhibition of tumour cell growth, NCI panel, 48 h

The structures appear in SMILES notation.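 The compound was tested at five concentrations on cells cultured in 96-well plates, with a 48-hour exposure period. GI50 = concentration required for 50% inhibition of growth. TGI: concentration producing complete growth inhibition.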 Where only a bound is given, the exact number is not on record here.

As for `Nc1ccc(-c2nc3ccccc3s2)cc1C(F)(F)F`, the results for the GI50 in the experiment on IGROV1 ovarian and in the experiment with NCI-H226 lung were 2.6 µM and 15.3 µM, respectively. In addition, the TGI in the experiment on IGROV1 ovarian turned out to be 21.1 µM; with NCI-H226 lung, 34.4 µM; with U251 CNS, 28.7 µM; with HOP-92 NSCLC, 33.2 µM; in the experiment on LOX IMVI melanoma, 32.4 µM; in the experiment with T-47D breast, 20.6 µM. The TGI in the experiment on UACC-257 melanoma came out at 29 µM; with MALME-3M melanoma it was 29.4 µM; in the experiment on MDA-MB-231 breast it was 26.3 µM; with K-562 leukemia it was 46.6 µM.

With `N#CC(N=Nc1ccc(Cl)cc1)c1nc2ccccc2o1` (stereo unspecified), the TGI was over 100 µM in the experiment on NCI-H226 lung; over 100 µM in the experiment on U251 CNS; 70.4 µM in the experiment on HOP-92 NSCLC; over 100 µM in the experiment with T-47D breast; over 100 µM with UACC-257 melanoma; over 100 µM in the experiment with MALME-3M melanoma. Also, the TGI is over 100 µM with MDA-MB-231 breast and 50.2 µM in the experiment with K-562 leukemia.

Take `CCOC(=O)C1(C(=O)OCC)COS(=O)OC1`: the TGI with NCI-H226 lung was 40.6 µM; in the experiment with U251 CNS, over 100 µM; in the experiment with HOP-92 NSCLC, 28.6 µM; in the experiment with LOX IMVI melanoma it was 28.4 µM; in the experiment on T-47D breast, 50.8 µM; in the experiment with UACC-257 melanoma, over 100 µM. The TGI with MDA-MB-231 breast was 35.3 µM; in the experiment on K-562 leukemia, over 100 µM.

In the case of `O=C(NCCCN(CCCCN(CCCNC(=O)C(F)(F)F)Cc1ccc2ccccc2c1)Cc1ccc2ccccc2c1)C(F)(F)F`, the TGI with IGROV1 ovarian, in the experiment on NCI-H226 lung, in the experiment on U251 CNS, with HOP-92 NSCLC, with LOX IMVI melanoma and in the experiment with T-47D breast was over 100 µM in each case. In addition, the results for the TGI in the experiment on UACC-257 melanoma, in the experiment on MDA-MB-231 breast and in the experiment on K-562 leukemia were 4.58 µM, over 100 µM and 7.34 µM, respectively.

As to `COC(=O)CN1c2nc(C#N)c(C#N)nc2N(CC(=O)OC)c2nc(C#N)c(C#N)nc21`, the TGI in the experiment with IGROV1 ovarian is 23.4 µM; in the experiment with NCI-H226 lung it was over 100 µM; with U251 CNS, over 57.1 µM; in the experiment with HOP-92 NSCLC, 7.44 µM; in the experiment with LOX IMVI melanoma, over 20.1 µM; in the experiment with T-47D breast it was 8.6 µM. Moreover, the TGI is over 100 µM in the experiment with UACC-257 melanoma, 3.01 µM with MALME-3M melanoma, over 52.9 µM with MDA-MB-231 breast and over 33.9 µM in the experiment with K-562 leukemia.

For `NC(CC1=CS(=O)(=O)c2ccc(Cl)cc21)C(=O)O` (stereo unspecified), the TGI with IGROV1 ovarian, in the experiment with NCI-H226 lung, with U251 CNS, in the experiment with HOP-92 NSCLC, with LOX IMVI melanoma and with T-47D breast was over 100 µM each time. For the same molecule, the TGI in the experiment on UACC-257 melanoma, in the experiment with MALME-3M melanoma, in the experiment on MDA-MB-231 breast and in the experiment on K-562 leukemia was over 100 µM in each case.

`CCCCn1cnc2c(c(CC#N)nn2-c2ccccc2)c1=N`: the TGI in the experiment on IGROV1 ovarian, in the experiment on NCI-H226 lung, in the experiment on U251 CNS, with HOP-92 NSCLC, in the experiment with LOX IMVI melanoma and in the experiment with T-47D breast was over 100 µM each time. Moreover, the TGI with UACC-257 melanoma, in the experiment with MALME-3M melanoma, in the experiment with MDA-MB-231 breast and in the experiment with K-562 leukemia was over 100 µM throughout.

As to `Cc1ccc(CC[P+](=O)CCc2ccc(C)nc2)cn1`, the TGI with IGROV1 ovarian, in the experiment on NCI-H226 lung, in the experiment with U251 CNS, in the experiment on HOP-92 NSCLC, in the experiment on LOX IMVI melanoma and with T-47D breast was over 100 µM throughout. Besides, the TGI in the experiment with UACC-257 melanoma, with MALME-3M melanoma, with MDA-MB-231 breast and in the experiment on K-562 leukemia was over 100 µM in each case.

Take `C[C@@H](Cl)[C@H]1CCCN(Cc2ccc(Br)cc2)C1`: the TGI in the experiment with IGROV1 ovarian, with NCI-H226 lung, in the experiment on U251 CNS, in the experiment with HOP-92 NSCLC, in the experiment with LOX IMVI melanoma and in the experiment on T-47D breast was over 12.5 µM throughout. Also, the TGI in the experiment on UACC-257 melanoma, with MALME-3M melanoma, with MDA-MB-231 breast and with K-562 leukemia was over 12.5 µM in each case.

Turning to `C=C1c2cc3c(cc2CC12Cc1cc4c(cc1C2=O)CCC4)CCC3` (stereo unspecified), the TGI in the experiment on IGROV1 ovarian, in the experiment on U251 CNS, in the experiment on HOP-92 NSCLC, in the experiment on LOX IMVI melanoma, in the experiment with T-47D breast and in the experiment with UACC-257 melanoma was over 100 µM throughout. The TGI in the experiment on MALME-3M melanoma, with MDA-MB-231 breast and in the experiment on K-562 leukemia was over 100 µM throughout.

As to `O=c1ccn(C2OC(CO)C(P(=O)(O)O)C2O)c(=O)[nH]1` (stereo unspecified), the TGI in the experiment on IGROV1 ovarian, in the experiment on NCI-H226 lung, in the experiment with U251 CNS, in the experiment on HOP-92 NSCLC, in the experiment with LOX IMVI melanoma and in the experiment with T-47D breast was over 100 µM throughout. Besides, the TGI in the experiment on UACC-257 melanoma, in the experiment on MALME-3M melanoma, with MDA-MB-231 breast and in the experiment with K-562 leukemia was over 100 µM each time.

In the case of `C/C1=C\CC[C@@]2(C)O[C@@H]2C[C@@H](C2(C)CO2)CC/C(C)=C/CC1` (stereo partly specified), the TGI in the experiment with IGROV1 ovarian is over 100 µM; with NCI-H226 lung, 30.3 µM; in the experiment on U251 CNS it was 29.6 µM; in the experiment on HOP-92 NSCLC, over 100 µM; with LOX IMVI melanoma, 28.8 µM; in the experiment on T-47D breast, 78.3 µM. The TGI with UACC-257 melanoma was over 100 µM; with MALME-3M melanoma it was 32.5 µM; in the experiment on MDA-MB-231 breast, 47.3 µM; with K-562 leukemia, over 100 µM.

As to `C(/C=C(\Nc1ccccc1)C12CC3CC(CC(C3)C1)C2)=Nc1ccccc1`, the TGI is 36.5 µM in the experiment on IGROV1 ovarian; 38.5 µM in the experiment with NCI-H226 lung; 31.7 µM in the experiment on U251 CNS; 60.7 µM in the experiment on HOP-92 NSCLC; 28.6 µM in the experiment with LOX IMVI melanoma; 99.6 µM in the experiment on T-47D breast. In addition, the TGI in the experiment with UACC-257 melanoma turned out to be 73.3 µM; in the experiment on MALME-3M melanoma, 36.9 µM; in the experiment on MDA-MB-231 breast, 34.1 µM; in the experiment on K-562 leukemia, 35.1 µM.

Turning to `c1csc(-c2ccc(-c3cccs3)c3nsnc23)c1`, the TGI with IGROV1 ovarian is over 88.4 µM; with NCI-H226 lung it was over 50.2 µM; in the experiment on U251 CNS, over 87.5 µM; with HOP-92 NSCLC, over 100 µM; with LOX IMVI melanoma it was over 61.9 µM; in the experiment with T-47D breast, 1.8 µM. The TGI was over 100 µM with UACC-257 melanoma, over 55.8 µM in the experiment on MALME-3M melanoma, over 31.6 µM with MDA-MB-231 breast and 37.9 µM in the experiment with K-562 leukemia.
